# Where a SMILES comes first, the peptide text is derived from it.
# Experiments:
# [1] = tested on: E. coli ATCC 25922; assay type: cell-based, Escherichia coli; settings: ATCC 25922
# Procedure: (§1) Bacteria were grown overnight at 37° C. in Mueller-Hinton Broth (MHB; Sigma-Aldrich, St. Louis. MO, USA) in a shaking incubator and aliquoted into cryovials with a 50% glycerol solution in a 1:1 ratio. No additives were added to the MHB during the growth of bacterial isolates. Glycerol stocks were stored at −80° C.
# (§2) The antimicrobial activity of the putative AMPs was determined by a broth microdilution assay as described by the Clinical and Laboratory Standards Institute, with the published adaptations for testing of cationic peptides. Escherichia coli 25922 and Staphylococcus aureus 29213 isolates were purchased from the American Type Culture Collection (ATCC; Manassas, VA, USA). A human clinical isolate of Salmonella enterica serovar Enteritidis was provided by the BC Centre for Disease Control. Bacteria from stocks stored at −80° C. were streaked onto nonselective Columbia blood agar with 5% sheep blood (Oxoid) and incubated overnight at 37° C. Next, 2-4 colonies were streaked onto a new agar plate to ensure uniform health of colonies used in the broth microdilution assay. Isolated colonies were suspended in MHB and the optical density was measured with a spectrophotometer to create an initial inoculum concentration of approximately 1×10^8 cfu/mL. The inoculum was diluted 1:250 to a final concentration of 2-8×10^5 cfu/mL, which was confirmed by performing a Total Viability Count (TVC). The TVC consisted of plating a 1:1000 dilution of the final inoculum on nonselective media and was also used to confirm the health and purity of the inoculum in each trial.
# (§3) Lyophilized 80 μg peptide aliquots synthesized by GenScript (Piscataway, NJ, USA) were resuspended to 1.28 mg/mL with UltraPure water (Thermo Fisher Scientific, Waltham, MA, USA) and serially diluted in polypropylene 96-well microtiter plates (Greiner Bio-One #650261, Kremsmunster, Austria) from 128 down to 0.5 μg/mL. Two columns per plate were reserved for growth and sterility controls. Inoculum was added to the wells containing the peptide and the growth control. Plates were incubated for 20-24 h at 37° C. The minimum inhibitory concentration (MIC) was determined as the lowest peptide concentration where there was no visible bacterial growth.
# [2] = tested on: Salmonella enterica serovar Enteritidis (human clinical isolate); assay type: cell-based; settings: serovar Enteritidis (human clinical isolate)
# Procedure: as §1, §2, §3
# [3] = tested on: S. aureus ATCC 29213; assay type: cell-based, Staphylococcus aureus; settings: ATCC 29213
# Procedure: as §1, §2, §3
MIC (ug/mL) E. coli [1],MIC (ug/mL) S. Enteritidis [2],MIC (ug/mL) S. aureus [3],SMILES
>128/>128/>128 ug/mL,>128/>128/>128 ug/mL,>128/>128/>128 ug/mL,"CC[C@H](C)[C@H](N)C(=O)N[C@H](C(=O)N[C@@H](CCCNC(=N)N)C(=O)N[C@@H](C)C(=O)N[C@H](C(=O)N[C@@H](C)C(=O)N[C@@H](C)C(=O)N[C@@H](CCC(=O)O)C(=O)N[C@@H](CS)C(=O)N[C@@H](CC(C)C)C(=O)N[C@@H](CCCCN)C(=O)N[C@@H](Cc1c[nH]cn1)C(=O)N1CCC[C@H]1C(=O)N[C@@H](Cc1c[nH]c2ccccc12)C(=O)N[C@@H](CC(C)C)C(=O)N[C@@H](CCCCN)C(=O)N[C@H](C(=O)N[C@@H](CCCCN)C(=O)N[C@@H](CCCCN)C(=O)O)[C@@H](C)CC)[C@@H](C)O)[C@@H](C)CC [BoAr3, IIRATAAECLKHPWLKIKK] (H-IIRATAAECLKHPWLKIKK-OH; N-terminus and C-terminus assumed)"
>128/>128/>128 ug/mL,>128/>128/>128 ug/mL,>128/>128/>128 ug/mL,"CC(C)C[C@H](NC(=O)[C@H](CO)NC(=O)[C@H](C)NC(=O)[C@@H](NC(=O)[C@@H](N)CO)C(C)C)C(=O)N[C@@H](C)C(=O)N[C@@H](CCCCN)C(=O)N[C@@H](CC(N)=O)C(=O)N[C@@H](CO)C(=O)N[C@@H](C)C(=O)N[C@@H](Cc1c[nH]c2ccccc12)C(=O)N1CCC[C@H]1C(=O)N[C@H](C(=O)N[C@@H](CO)C(=O)N[C@@H](CC(C)C)C(=O)N[C@@H](CCCCN)C(=O)N[C@@H](CCCNC(=N)N)C(=O)O)C(C)C [BoAr4, SVASLAKNSAWPVSLKR] (H-SVASLAKNSAWPVSLKR-OH; N-terminus and C-terminus assumed)"
>128/>128/>128 ug/mL,>128/>128/>128 ug/mL,>128/>128/>128 ug/mL,"CC[C@H](C)[C@H](NC(=O)[C@H](CO)NC(=O)[C@@H](NC(=O)[C@@H](NC(=O)[C@@H](N)C(C)C)[C@@H](C)O)[C@@H](C)CC)C(=O)N[C@@H](C)C(=O)N[C@@H](CCCNC(=N)N)C(=O)N[C@@H](CCCNC(=N)N)C(=O)N[C@H](C(=O)N[C@@H](CO)C(=O)N[C@@H](CO)C(=O)N[C@@H](Cc1c[nH]cn1)C(=O)N[C@@H](CCCCN)C(=O)N[C@@H](CCCNC(=N)N)C(=O)NCC(=O)O)C(C)C [BoAr5, VTISIARRVSSHKRG] (H-VTISIARRVSSHKRG-OH; N-terminus and C-terminus assumed)"

# More lines, now with the values behind:
SMILES,MIC (ug/mL) E. coli [1],MIC (ug/mL) S. Enteritidis [2],MIC (ug/mL) S. aureus [3]
"CC(C)[C@H](N)C(=O)N[C@@H](CCCCN)C(=O)N[C@@H](CS)C(=O)N[C@@H](CCCNC(=N)N)C(=O)N[C@H](C(=O)N[C@@H](CCCNC(=N)N)C(=O)N[C@@H](CCCNC(=N)N)C(=O)O)C(C)C [ApMe1, VKCRVRR] (H-VKCRVRR-OH; N-terminus and C-terminus assumed)",>128/>128/>128 ug/mL,>128/>128/>128 ug/mL,>128/>128/>128 ug/mL
CC(C)C[C@H](NC(=O)[C@H](C)NC(=O)[C@@H](NC(=O)[C@H](CC(=O)O)NC(=O)[C@H](CCCNC(=N)N)NC(=O)[C@H](CCCCN)NC(=O)[C@H](Cc1ccccc1)NC(=O)[C@@H](NC(=O)[C@H](CCC(=O)O)NC(=O)[C@H](CCCCN)NC(=O)[C@H](Cc1c[nH]cn1)NC(=O)[C@H](C)NC(=O)CN)C(C)C)[C@@H](C)O)C(=O)N[C@H](C(=O)N[C@@H](CCCCN)C(=O)N[C@@H](CCC(=O)O)C(=O)N[C@@H](C)C(=O)N[C@@H](C)C(=O)N[C@@H](CCCCN)C(=O)N[C@@H](CCCCN)C(=O)N[C@@H](C)C(=O)N[C@@H](CCCCN)C(=O)N[C@@H](CCCCN)C(=O)O)[C@@H](C)O [ApMe2] (H-GAHKEVFKRDTALTKEAAKKAKK-OH; N-terminus and C-terminus assumed),>128/>128/>128 ug/mL,>128/>128/>128 ug/mL,>128/>128/>128 ug/mL
CC[C@H](C)[C@H](NC(=O)[C@H](CC(C)C)NC(=O)CNC(=O)[C@H](Cc1c[nH]c2ccccc12)NC(=O)CN)C(=O)N[C@@H](CC(N)=O)C(=O)N[C@H](C(=O)N[C@@H](CCCCN)C(=O)N[C@H](C(=O)N1CCC[C@H]1C(=O)N1CCC[C@H]1C(=O)N[C@H](C(=O)N[C@@H](CC(C)C)C(=O)N[C@@H](Cc1c[nH]cn1)C(=O)N[C@@H](CCCCN)C(=O)N[C@H](C(=O)N[C@@H](CO)C(=O)N[C@H](C(=O)N1CCC[C@H]1C(=O)N[C@@H](CC(C)C)C(=O)N[C@H](C(=O)N[C@@H](CO)C(=O)N[C@@H](CCCCN)C(=O)N[C@@H](CCCNC(=N)N)C(=O)O)C(C)C)C(C)C)C(C)C)C(C)C)[C@@H](C)CC)[C@@H](C)CC [ApMe3] (H-GWGLINIKIPPVLHKVSVPLVSKR-OH; N-terminus and C-terminus assumed),>128/>128/>128 ug/mL,>128/>128/>128 ug/mL,>128/>128/>128 ug/mL
CC[C@H](C)[C@H](NC(=O)[C@H](CC(C)C)NC(=O)[C@H](CO)NC(=O)[C@H](CCCCN)NC(=O)[C@H](CC(C)C)NC(=O)[C@@H](NC(=O)[C@H](Cc1ccc(O)cc1)NC(=O)[C@H](CCCNC(=N)N)NC(=O)[C@H](CCCNC(=N)N)NC(=O)[C@H](Cc1c[nH]cn1)NC(=O)[C@H](CCCNC(=N)N)NC(=O)[C@H](CCC(=O)O)NC(=O)[C@H](Cc1c[nH]cn1)NC(=O)[C@H](CCCNC(=N)N)NC(=O)[C@H](CC(C)C)NC(=O)[C@H](CCCCN)NC(=O)[C@@H](NC(=O)[C@H](Cc1c[nH]cn1)NC(=O)[C@H](Cc1c[nH]cn1)NC(=O)[C@H](Cc1c[nH]cn1)NC(=O)[C@@H](N)CCCCN)[C@@H](C)CC)[C@@H](C)CC)C(=O)O [ApMe4] (H-KHHHIKLRHERHRRYILKSLI-OH; N-terminus and C-terminus assumed),>128/>128/>128 ug/mL,>128/>128/>128 ug/mL,>128/>128/>128 ug/mL
"CC[C@H](C)[C@H](NC(=O)[C@@H](N)CO)C(=O)N[C@@H](CC(C)C)C(=O)N[C@@H](CO)C(=O)N[C@H](C(=O)N[C@@H](CC(C)C)C(=O)N[C@@H](CO)C(=O)N[C@@H](Cc1c[nH]cn1)C(=O)N[C@@H](CCCCN)C(=O)N[C@@H](CCCNC(=N)N)C(=O)O)[C@@H](C)O [ApMe5, SILSTLSHKR] (H-SILSTLSHKR-OH; N-terminus and C-terminus assumed)",>128/>128/>128 ug/mL,>128/>128/>128 ug/mL,>128/>128/>128 ug/mL
CC[C@H](C)[C@H](NC(=O)[C@H](CCCCN)NC(=O)[C@H](CCCNC(=N)N)NC(=O)[C@H](C)NC(=O)[C@@H](N)CCCNC(=N)N)C(=O)N[C@@H](CCCNC(=N)N)C(=O)N[C@@H](CCCNC(=N)N)C(=O)N[C@@H](CCCNC(=N)N)C(=O)N[C@@H](CCCNC(=N)N)C(=O)NCC(=O)N[C@@H](CO)C(=O)N[C@@H](CC(C)C)C(=O)N[C@@H](CCCNC(=N)N)C(=O)N[C@@H](Cc1c[nH]cn1)C(=O)N[C@@H](CS)C(=O)N[C@H](C(=O)N[C@H](C(=O)N[C@H](C(=O)N1CCC[C@H]1C(=O)N[C@@H](CO)C(=O)N[C@H](C(=O)N1CCC[C@H]1C(=O)N[C@@H](CO)C(=O)NCC(=O)N[C@@H](CCCNC(=N)N)C(=O)O)[C@@H](C)O)[C@@H](C)CC)[C@@H](C)O)C(C)C [ApMe6] (H-RARKIRRRRGSLRHCVTIPSTPSGR-OH; N-terminus and C-terminus assumed),>128/>128/>128 ug/mL,>128/>128/>128 ug/mL,>128/>128/>128 ug/mL
"CC(C)[C@H](NC(=O)[C@H](CCCCN)NC(=O)CNC(=O)[C@H](C)NC(=O)CNC(=O)[C@H](C)NC(=O)[C@H](C)N)C(=O)N[C@H](C(=O)N[C@@H](CCCCN)C(=O)N[C@@H](CO)C(=O)N[C@@H](C)C(=O)N[C@@H](CCC(N)=O)C(=O)N[C@@H](CCCCN)C(=O)N[C@@H](C)C(=O)N[C@@H](CCC(N)=O)C(=O)N[C@@H](CCCCN)C(=O)N[C@@H](C)C(=O)N[C@@H](CCCCN)C(=O)O)[C@@H](C)O [BoAr1, AAGAGKVTKSAQKAQKAK] (H-AAGAGKVTKSAQKAQKAK-OH; N-terminus and C-terminus assumed)",>128/>128/>128 ug/mL,>128/>128/>128 ug/mL,>128/>128/>128 ug/mL
"CC[C@H](C)[C@H](NC(=O)[C@H](CCCCN)NC(=O)[C@H](CC(C)C)NC(=O)[C@H](Cc1c[nH]c2ccccc12)NC(=O)[C@@H]1CCCN1C(=O)[C@H](Cc1c[nH]cn1)NC(=O)[C@H](CCCCN)NC(=O)[C@H](CC(C)C)NC(=O)[C@H](CS)NC(=O)[C@H](CCC(=O)O)NC(=O)[C@H](C)NC(=O)[C@H](C)NC(=O)[C@@H](NC(=O)[C@H](C)N)[C@@H](C)O)C(=O)N[C@@H](CCCCN)C(=O)N[C@@H](CCCCN)C(=O)O [BoAr2, ATAAECLKHPWLKIKK] (H-ATAAECLKHPWLKIKK-OH; N-terminus and C-terminus assumed)",>128/>128/>128 ug/mL,>128/>128/>128 ug/mL,>128/>128/>128 ug/mL
